Experimental data as given in US5807860A, “Urea derivatives” (Mitsubishi Chemical Corporation, priority 1995, dated 1998).

Columns and labels:
[1] = test system: high cholesterol fed WISTAR male rats (total cholesterol in the serum); experiment: Cholesterol reduction activity in high cholesterol fed rats; type: in vivo, rat (WISTAR); settings: Rattus norvegicus, once a day for 5 days, 3.5 hours after final administration, probit analysis
Description: Cholesterol Reduction Activity in High Cholesterol Fed Rats
6-Week old WISTAR male rats were fed with high cholesterol solid feedstuff (Oriental Kobo Co., Ltd., 1% cholesterol, 0.5% cholic acid). Each group consisted of seven rats was compulsorily administered with 0.2% aqueous solution of a test compound (compound of Example 3) once a day at a dose of 1 mg/kg, 3 mg/kg, 10 mg/kg, or 30 mg/kg for 5 days. One group consisted of seven rats was fed with the same high cholesterol feedstuff and used as a control group. After 3.5 hours from the final administration, blood was collected from the abdominal aorta and the total cholesterol in the serum was measured. The reduction rate of total cholesterol was represented as a ratio between a control group not administered with the drug (seven rats) and examined by the probit analysis.

[2] = target: T1, ACAT of HepG2 cells (Homo sapiens, UniProt P35610); experiment: Inhibitory activity against ACAT of HepG2 cells derived from human liver cancer cells; type: cell-based; settings: radio-labelled oleic acid/BSA complex, cholesterol oleate produced
T1 construct: endogenous in cells; host or cells: HepG2
T1 sequence (P35610 1-550): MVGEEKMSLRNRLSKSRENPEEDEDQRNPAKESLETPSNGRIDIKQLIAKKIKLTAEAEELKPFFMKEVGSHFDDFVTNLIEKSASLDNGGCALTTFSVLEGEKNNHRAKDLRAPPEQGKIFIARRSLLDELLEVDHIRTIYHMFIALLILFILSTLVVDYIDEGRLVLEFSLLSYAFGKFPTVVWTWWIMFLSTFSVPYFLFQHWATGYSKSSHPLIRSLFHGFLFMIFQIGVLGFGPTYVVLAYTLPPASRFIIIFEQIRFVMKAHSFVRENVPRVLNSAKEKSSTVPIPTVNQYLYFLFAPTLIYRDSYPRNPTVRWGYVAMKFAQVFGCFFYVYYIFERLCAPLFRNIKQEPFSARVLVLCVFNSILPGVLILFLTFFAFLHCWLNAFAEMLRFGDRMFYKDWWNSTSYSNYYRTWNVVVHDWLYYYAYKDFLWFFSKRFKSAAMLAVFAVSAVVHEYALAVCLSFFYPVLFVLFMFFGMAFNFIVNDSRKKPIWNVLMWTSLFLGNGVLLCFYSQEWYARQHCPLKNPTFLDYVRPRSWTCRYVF
Description: Inhibitory Activity against ACAT of HepG2 cells Derived from Human Liver Cancer Cells Inhibitory activities of the compounds of the present invention against ACAT were measured by the method described below. HepG2 cells derived from human liver cancer cells were used for the measurement of the ACAT activity. A complex of radio-labelled oleic acid and bovine serum albumin was added to a culture of the cells, and the activity was measured by observing the amount of radio-labelled cholesterol oleate produced from the radio-labelled oleic acid in the cells.

[3] = Moisture absorption under ambient atmosphere (Karl Fisher method); type: physicochemical; settings: kept under ambient atmosphere for 2 days
Excerpt: Among these compounds, compounds having higher hygroscopic properties may absorb moisture when kept under ambient atmosphere to form substances represented by the following formula: [drawing 15] wherein R1, R2, R3, R4, R5, R6, k, l, and Y are the same as those defined above; symbol "a" represents 0 or an arbitrary integer or represents an arbitrary fraction; and symbol "b" represents an arbitrary integer or an arbitrary fraction. For example, 3.3% weight increase was observed by Karl Fisher method after N-{5-(1-imidazolyl)-2-methoxyphenyl}methyl-N-(1-pentyl)-N'-[2-{3-(4-phenyl-1-piperazinyl)propoxy}-6-methylphenyl]urea dihydrochloride obtained in Example 3 was kept under ambient atmosphere for 2 days.

Question: For `CCCCCN(Cc1cc(-n2ccnc2)ccc1OC)C(=O)Nc1c(C)cccc1OCCCN1CCN(c2ccccc2)CC1.Cl.Cl` [Example 3, N-{5-(1-imidazolyl)-2-methoxyphenyl}methyl-N-(1-pentyl)-N'-[2-{3-(4-phenyl-1-piperazinyl)propoxy}-6-methylphenyl]urea dihydrochloride], which ED10 ([1]; 10% reduction of serum total cholesterol vs control, read-out: Dose of test compound for total cholesterol reduction rate 10%) is on record?
Answer: 1.9 mg/kg

Question: And the ED20 ([1]; 20% reduction of serum total cholesterol vs control, read-out: Dose of test compound for total cholesterol reduction rate 20%)?
Answer: 3.6 mg/kg

Question: What about the ED25 ([1]; 25% reduction of serum total cholesterol vs control, read-out: Dose of test compound for total cholesterol reduction rate 25%) of the same compound?
Answer: 4.6 mg/kg

Question: What about the ED30 ([1]; 30% reduction of serum total cholesterol vs control, read-out: Dose of test compound for total cholesterol reduction rate 30%) of the same compound?
Answer: 5.7 mg/kg

Question: What about the ED50 ([1]; 50% reduction of serum total cholesterol vs control, read-out: Dose of test compound for total cholesterol reduction rate 50%) of the same compound?
Answer: 12.1 mg/kg

Question: And the IC50 [2]?
Answer: 108 nM

Question: What about the “weight increase (moisture absorption)” value [3] of the same compound?
Answer: 3.3%
